17 compounds from patent publication US20230064983A1 (priority 2020, published 2023) can be followed below.

The IC50 is the concentration that gives 50% inhibition.

Where “and” joins values, the source holds several entries; their conditions need not be identical. Equal values may be shown once. Bounds are passed on as bounds.

For experiment [1], the target named is T1, EGFR with insertion SVD between D770 and N771 (mutEGFR D770_N771insSVD) (Homo sapiens, UniProt P00533, DUP768-770).
T1 construct: amino acids R669 to A1210; made in house; host or cells: Sf9 insect cells (baculovirus)
T1 sequence (P00533 other isoform, or with tags, fused parts or gaps DUP768-770): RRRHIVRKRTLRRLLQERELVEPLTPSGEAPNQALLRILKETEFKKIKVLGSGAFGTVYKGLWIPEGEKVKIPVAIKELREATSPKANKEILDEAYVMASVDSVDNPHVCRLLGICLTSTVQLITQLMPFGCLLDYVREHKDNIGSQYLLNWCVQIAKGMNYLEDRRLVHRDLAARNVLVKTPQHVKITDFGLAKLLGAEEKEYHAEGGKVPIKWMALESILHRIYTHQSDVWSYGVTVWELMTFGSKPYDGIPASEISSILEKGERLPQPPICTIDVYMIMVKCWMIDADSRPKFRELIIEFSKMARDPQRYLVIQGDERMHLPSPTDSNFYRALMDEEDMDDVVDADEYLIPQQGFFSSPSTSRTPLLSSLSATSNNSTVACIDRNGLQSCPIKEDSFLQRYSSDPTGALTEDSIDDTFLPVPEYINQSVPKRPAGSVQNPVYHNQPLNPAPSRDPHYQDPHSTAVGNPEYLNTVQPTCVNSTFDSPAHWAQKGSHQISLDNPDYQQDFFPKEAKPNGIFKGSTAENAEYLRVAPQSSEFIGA
In words: Exon20-Mutant-EGFR(D770_N771insSVD) kinase assay (TR-FRET). The format is biochemical. To be noted: 2 mM ATP, Table 2.

For a further experiment, the target named is T2, Bub1 (Homo sapiens, UniProt O43683).
T2 construct: catalytic domain of human Bub1 (amino acids 704-1085); His6 (N); made in house; host or cells: insect cells (Hi5)
T2 sequence (O43683 704-1085): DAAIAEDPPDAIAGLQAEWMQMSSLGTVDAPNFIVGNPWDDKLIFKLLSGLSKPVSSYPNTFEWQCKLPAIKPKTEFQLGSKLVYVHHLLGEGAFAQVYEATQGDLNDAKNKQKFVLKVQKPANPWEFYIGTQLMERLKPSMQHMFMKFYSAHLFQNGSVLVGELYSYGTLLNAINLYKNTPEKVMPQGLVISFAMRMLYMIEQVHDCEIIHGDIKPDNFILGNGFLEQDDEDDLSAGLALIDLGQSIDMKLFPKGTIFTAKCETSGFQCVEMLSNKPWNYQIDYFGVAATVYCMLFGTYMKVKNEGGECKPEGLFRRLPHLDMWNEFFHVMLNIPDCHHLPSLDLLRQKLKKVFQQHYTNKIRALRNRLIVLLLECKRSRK
In words: Bub1 high ATP kinase assay (TR-FRET). The format is biochemical. The note with it: Bub1 high ATP (2 mM) IC50, TR-FRET, 2 mM ATP; Table 3. The source says:
Bub1 high ATP Kinase Assay
Bub1-inhibitory activity of compounds of the present invention at a high ATP concentration was quantified employing the Bub1 TR-FRET high ATP kinase assay as described in the following paragraphs.
N-terminally His6-tagged recombinant catalytic domain of human Bub1 (amino acids 704-1085), expressed in insect cells (Hi5) and purified by Ni-NTA affinity chromatography and subsequent size exclusion chromatography, was used as enzyme. As substrate for the kinase reaction the biotinylated peptide biotin-Ahx-[…] (C-terminus in amid form) was used which can be purchased e.g. form the company Biosyntan (Berlin, Germany).
Then the kinase reaction was started by the addition of 2 μl of a solution of Bub1 in assay buffer and the resulting mixture was incubated for a reaction time of 60 min at 22° C. The concentration of Bub1 was adjusted depending of the activity of the enzyme lot and was chosen appropriate to have the assay in the linear range, a typical concentration is about 200 ng/ml. The reaction was stopped by the addition of 3 μl of a solution of TR-FRET detection reagents (0.167 μM streptavidine-XL665 [Cisbio Bioassays, Codolet, France] and 1.67 nM anti-phosho-Serine antibody [Merck Millipore, cat. #35-002] and 0.67 nM LANCE EU-W1024 labeled anti-mouse IgG antibody [Perkin-Elmer, product no. AD0077, as an alternative a Terbium-cryptate-labeled anti-mouse IgG antibody from Cisbio Bioassays can be used]) in an aqueous EDTA-solution (83.3 mM EDTA, 0.2% (w/v) bovine serum albumin in 100 mM HEPES pH 7.5).
The resulting mixture was incubated 1 h at 22° C. to allow the formation of complex between the phosphorylated biotinylated peptide and the detection reagents. Subsequently the amount of phosphorylated substrate was evaluated by measurement of the resonance energy transfer from the Eu-chelate to the streptavidine-XL. Therefore, the fluorescence emissions at 620 nm and 665 nm after excitation at 350 nm was measured in a TR-FRET reader, e.g. a Pherastar or Pherastar FS (both from BMG Labtechnologies, Offenburg, Germany) or a Viewlux (Perkin-Elmer). The ratio of the emissions at 665 nm and at 622 nm was taken as the measure for the amount of phosphorylated substrate.
In general terms: In TR-FRET formats the signal depends on donor and acceptor labels being close together.

The target of experiment [2] is Ba/F3-EGFR-D770_N771insSVD cells (Homo sapiens, UniProt P00533, DUP768-770, cells depend on it). Nature of the experiment: Ba/F3 cell survival assay, EGFR D770_N771insSVD. The format is cell-based. To be noted: Cell Titer-Glo, 48 h, without IL-3; Table 4; read-out: BA/F3 (insSVD) IC50.
Chain of Ba/F3-EGFR-D770_N771insSVD cells (P00533 with tags, fused parts or gaps DUP768-770): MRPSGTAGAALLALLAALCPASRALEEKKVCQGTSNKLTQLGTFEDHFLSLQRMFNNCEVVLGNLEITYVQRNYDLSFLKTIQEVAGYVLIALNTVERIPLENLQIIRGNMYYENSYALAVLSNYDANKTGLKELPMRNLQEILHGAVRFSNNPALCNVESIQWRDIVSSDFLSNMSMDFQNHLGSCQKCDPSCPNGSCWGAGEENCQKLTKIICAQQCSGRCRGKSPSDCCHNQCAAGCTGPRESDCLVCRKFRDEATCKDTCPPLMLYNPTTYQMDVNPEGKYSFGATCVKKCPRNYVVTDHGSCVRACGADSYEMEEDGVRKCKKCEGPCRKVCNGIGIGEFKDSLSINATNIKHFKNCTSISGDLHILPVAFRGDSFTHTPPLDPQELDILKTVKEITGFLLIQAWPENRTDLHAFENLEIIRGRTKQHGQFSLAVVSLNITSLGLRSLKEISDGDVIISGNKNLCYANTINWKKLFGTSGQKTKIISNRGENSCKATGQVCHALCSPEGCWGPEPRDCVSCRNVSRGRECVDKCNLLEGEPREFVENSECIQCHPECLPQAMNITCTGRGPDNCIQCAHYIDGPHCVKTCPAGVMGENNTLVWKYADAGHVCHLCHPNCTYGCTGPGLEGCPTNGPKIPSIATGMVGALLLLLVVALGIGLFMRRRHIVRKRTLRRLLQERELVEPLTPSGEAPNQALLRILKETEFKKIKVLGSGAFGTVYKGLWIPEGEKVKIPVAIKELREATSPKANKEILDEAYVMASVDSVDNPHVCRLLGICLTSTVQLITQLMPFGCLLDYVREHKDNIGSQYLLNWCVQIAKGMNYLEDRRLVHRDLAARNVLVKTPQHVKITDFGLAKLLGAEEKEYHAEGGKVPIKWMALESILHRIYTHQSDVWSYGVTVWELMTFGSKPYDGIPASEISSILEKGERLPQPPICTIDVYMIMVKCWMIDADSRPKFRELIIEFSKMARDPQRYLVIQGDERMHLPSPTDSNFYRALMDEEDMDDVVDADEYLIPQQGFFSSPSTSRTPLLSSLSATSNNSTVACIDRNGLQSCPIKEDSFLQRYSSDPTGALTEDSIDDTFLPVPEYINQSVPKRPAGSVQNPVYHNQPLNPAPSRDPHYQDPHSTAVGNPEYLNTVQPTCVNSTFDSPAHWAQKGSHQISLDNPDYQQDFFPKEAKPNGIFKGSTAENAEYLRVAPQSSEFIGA
A further experiment has as its target Ba/F3-EGFR-WT cells (Homo sapiens, UniProt P00533). Nature of the experiment: Ba/F3 cell survival assay, wild type EGFR. The note with it: Cell Titer-Glo, 48 h, with 10 ng/mL EGF; Table 4; read-out: BA/F3 (wild type) IC50. Type of experiment: cell-based.

Chain of Ba/F3-EGFR-WT cells (P00533 whole entry, looked up, change not shown): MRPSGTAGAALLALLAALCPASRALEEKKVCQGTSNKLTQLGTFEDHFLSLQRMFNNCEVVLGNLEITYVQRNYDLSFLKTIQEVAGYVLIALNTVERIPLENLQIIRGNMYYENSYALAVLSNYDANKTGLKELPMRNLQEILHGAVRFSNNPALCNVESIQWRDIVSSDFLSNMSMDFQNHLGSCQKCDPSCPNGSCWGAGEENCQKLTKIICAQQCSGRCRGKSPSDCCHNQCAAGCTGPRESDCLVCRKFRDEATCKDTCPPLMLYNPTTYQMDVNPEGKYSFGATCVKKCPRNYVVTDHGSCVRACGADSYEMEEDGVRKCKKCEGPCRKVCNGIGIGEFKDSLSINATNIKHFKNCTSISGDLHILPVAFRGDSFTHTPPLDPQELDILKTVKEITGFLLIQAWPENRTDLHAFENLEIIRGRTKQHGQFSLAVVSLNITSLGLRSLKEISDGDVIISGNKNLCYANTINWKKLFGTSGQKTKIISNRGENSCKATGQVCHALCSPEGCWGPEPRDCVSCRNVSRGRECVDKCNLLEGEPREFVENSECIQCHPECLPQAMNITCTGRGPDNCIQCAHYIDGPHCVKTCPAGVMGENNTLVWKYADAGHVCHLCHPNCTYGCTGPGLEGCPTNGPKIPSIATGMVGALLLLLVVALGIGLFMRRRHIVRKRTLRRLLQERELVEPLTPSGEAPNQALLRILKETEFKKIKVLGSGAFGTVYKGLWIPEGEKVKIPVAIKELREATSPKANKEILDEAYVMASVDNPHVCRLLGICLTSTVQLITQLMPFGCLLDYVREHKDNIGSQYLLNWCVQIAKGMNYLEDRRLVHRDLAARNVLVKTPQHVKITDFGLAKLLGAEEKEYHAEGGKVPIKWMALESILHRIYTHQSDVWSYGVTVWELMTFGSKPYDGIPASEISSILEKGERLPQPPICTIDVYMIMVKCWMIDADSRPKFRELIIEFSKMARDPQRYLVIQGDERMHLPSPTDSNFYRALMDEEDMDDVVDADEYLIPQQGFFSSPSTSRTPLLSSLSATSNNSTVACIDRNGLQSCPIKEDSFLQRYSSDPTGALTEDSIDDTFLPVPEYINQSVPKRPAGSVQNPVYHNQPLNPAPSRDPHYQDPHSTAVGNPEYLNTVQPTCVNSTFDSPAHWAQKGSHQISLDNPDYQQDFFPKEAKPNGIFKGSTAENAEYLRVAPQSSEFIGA

Take `COc1c(Cl)cccc1Nc1c(-c2ccncc2OCC2COC(C)(C)CO2)[nH]c2c1C(=O)N[C@H](C)C2` (mixture of isomers) [Example 77, (6R)-3-(3-chloro-2-methoxy-anilino)-2-{3-[(5,5-dimethyl-1,4-dioxan-2-yl)methoxy]-4-pyridyl}-6-methyl-1,5,6,7-tetrahydropyrrolo[3,2-c]pyridin-4-one]: the “mutEGFR (D770_N771insSVD) kinase assay IC50” value (shortened to “mutEGFR”) in experiment [1] amounted to 0.15 nM. Moreover, the IC50 on Bub1 was over 20000 nM. Also, the GI50 in experiment [2] was found to be 15.3 nM; at Ba/F3-EGFR-WT cells, 3200 nM.

With `COc1c(Cl)cccc1Nc1c(-c2ccncc2OCC(C)OC)[nH]c2c1C(=O)N[C@H](C)C2` (mixture of isomers) [Example 80, (6R)-3-(3-chloro-2-methoxy-anilino)-2-[3-(2-methoxypropoxy)-4-pyridyl]-6-methyl-1,5,6,7-tetrahydropyrrolo[3,2-c]pyridin-4-one], the “mutEGFR” value in experiment [1] is 0.131 nM. Also, the half-inhibitory concentration (IC50) at Bub1 turned out to be 2670 nM. In addition, the GI50 in experiment [2] was 19.9 nM; on Ba/F3-EGFR-WT cells, 628 nM.

As for `COc1c(Cl)cccc1Nc1c(-c2ccncc2OCC2CCCCN2C)[nH]c2c1C(=O)N[C@H](C)C2` (mixture of isomers) [Example 83, (6R)-3-(3-chloro-2-methoxy-anilino)-6-methyl-2-{3-[(1-methyl-2-piperidyl)methoxy]-4-pyridyl}-1,5,6,7-tetrahydropyrrolo[3,2-c]pyridin-4-one], in experiment [1], the “mutEGFR” value came out at 0.849 nM. Besides, the concentration for half-maximal inhibition (IC50) at Bub1 is over 20000 nM. The figures for the GI50 (in experiment [2]; at Ba/F3-EGFR-WT cells) were 24.6 nM and 669 nM, respectively.

As for `COc1c(Cl)cccc1Nc1c(-c2ccncc2OCCC(C)OC)[nH]c2c1C(=O)N[C@H](C)C2` (mixture of isomers) [Example 120, (6R)-3-(3-chloro-2-methoxy-anilino)-2-[3-(3-methoxybutoxy)-4-pyridyl]-6-methyl-1,5,6,7-tetrahydropyrrolo[3,2-c]pyridin-4-one], in experiment [1], the “mutEGFR” value was determined as 0.0901 nM. The IC50 on Bub1 turned out to be 1480 nM. For the same compound, the GI50 in experiment [2] was 31.1 nM; at Ba/F3-EGFR-WT cells it was 358 nM.

For the compound `COc1c(Cl)cccc1Nc1c(-c2ccncc2OC[C@@H]2CCCO2)[nH]c2c1C(=O)N[C@@H](C)C2` (single isomer, unassigned) [Example 4], in experiment [1], the “mutEGFR” value was 0.113 nM. The compound also yielded an IC50 against Bub1 of 3010 nM. The GI50 in experiment [2] came out at 95.3 nM; on Ba/F3-EGFR-WT cells, 883 nM.

With `COc1c(Cl)cccc1Nc1c(-c2ccncc2OC[C@@H]2CCCO2)[nH]c2c1C(=O)N[C@H](C)C2` (single isomer, unassigned) [Example 5], in experiment [1], the “mutEGFR” value turned out to be 0.125 nM. The midpoint of inhibition against Bub1, the IC50, lay at 9700 nM. The GI50 in experiment [2] is 20.2 nM; on Ba/F3-EGFR-WT cells, 331 nM.

`COc1c(F)cccc1Nc1c(-c2ccncc2OC[C@@H]2CCCO2)[nH]c2c1C(=O)NC(C)C2` (single isomer, unassigned) [Example 9]: the “mutEGFR” value in experiment [1] was 0.101 nM. Further, the 50% inhibitory concentration (IC50) on Bub1 worked out at 8240 nM. In addition, the GI50 in experiment [2] stood at 104 nM; on Ba/F3-EGFR-WT cells, 644 nM.

`COc1c(F)cccc1Nc1c(-c2ccncc2OC[C@@H]2CCCO2)[nH]c2c1C(=O)NC(C)C2` (single isomer, unassigned) [Example 10]: in experiment [1], the “mutEGFR” value was found to be 0.0957 nM. This compound yielded an IC50 against Bub1 of over 20000 nM. Further, the GI50 in experiment [2] is 31.7 nM; at Ba/F3-EGFR-WT cells, 382 nM.

In the case of `COc1c(Cl)cccc1Nc1c(-c2ccncc2OCC(C)(C)OC)[nH]c2c1C(=O)NCC2CCO` (single isomer, unassigned) [Example 14, 3-(3-chloro-2-methoxyanilino)-7-(2-hydroxyethyl)-2-[3-(2-methoxy-2-methylpropoxy)pyridin-4-yl]-1,5,6,7-tetrahydro-4H-pyrrolo[3,2-c]pyridin-4-one], the “mutEGFR” value in experiment [1] came out at 0.139 nM. Moreover, at Bub1, the half-maximal inhibitory concentration (IC50) amounted to 5390 nM. Also, the GI50 in experiment [2] was determined as 21 nM; at Ba/F3-EGFR-WT cells, 262 nM.

Turning to `COc1c(Cl)cccc1Nc1c(-c2ccncc2OCC(C)(C)OC)[nH]c2c1C(=O)NCC2CCO` (single isomer, unassigned) [Example 15, 3-(3-chloro-2-methoxyanilino)-7-(2-hydroxyethyl)-2-[3-(2-methoxy-2-methylpropoxy)pyridin-4-yl]-1,5,6,7-tetrahydro-4H-pyrrolo[3,2-c]pyridin-4-one], the “mutEGFR” value in experiment [1] turned out to be 0.158 nM. This compound registered a half-inhibitory concentration (IC50) against Bub1 of 1390 nM. The GI50 in experiment [2] was determined as 192 nM; at Ba/F3-EGFR-WT cells it was 895 nM.

Turning to `COc1c(Cl)cccc1Nc1c(-c2ccncc2OC[C@@H]2CCCO2)[nH]c2c1C(=O)NCC2CCO` (single isomer, unassigned) [Example 17], in experiment [1], the “mutEGFR” value stood at 0.238 nM. At Bub1, this compound gave a 50% inhibitory concentration (IC50) of over 20000 nM. For the same compound, the GI50 in experiment [2] worked out at 230 nM; at Ba/F3-EGFR-WT cells it was 1580 nM.

`COc1c(Cl)cccc1Nc1c(-c2ccncc2OC[C@@H]2CCCO2)[nH]c2c1C(=O)NCC2CCO` (single isomer, unassigned) [Example 18]: in experiment [1], the “mutEGFR” value was determined as 0.113 nM. The IC50 on Bub1 was 19200 nM and > 20000 nM. For the same compound, the GI50 in experiment [2] is 26.4 nM; on Ba/F3-EGFR-WT cells, 362 nM.

Take `COc1c(Cl)cccc1Nc1c(-c2ccncc2OCC2(C)CCO2)[nH]c2c1C(=O)NCC2CCO` (single isomer, unassigned) [Example 20, 3-(3-chloro-2-methoxyanilino)-7-(2-hydroxyethyl)-2-{3-[(2-methyloxetan-2-yl)methoxy]pyridin-4-yl}-1,5,6,7-tetrahydro-4H-pyrrolo[3,2-c]pyridin-4-one]: in experiment [1], the “mutEGFR” value worked out at 0.316 nM. At Bub1, this compound gave a half-maximal inhibitory concentration (IC50) of 17200 nM. In addition, the GI50 was 122 nM in experiment [2] and 1170 nM on Ba/F3-EGFR-WT cells.

On to `COc1c(Cl)cccc1Nc1c(-c2ccncc2OCC2(C)CCO2)[nH]c2c1C(=O)NCC2CCO` (single isomer, unassigned) [Example 21, 3-(3-chloro-2-methoxyanilino)-7-(2-hydroxyethyl)-2-{3-[(2-methyloxetan-2-yl)methoxy]pyridin-4-yl}-1,5,6,7-tetrahydro-4H-pyrrolo[3,2-c]pyridin-4-one], for which the “mutEGFR” value in experiment [1] is 0.473 nM. The same compound had an IC50 against Bub1 of over 20000 nM. The results for the GI50 (in experiment [2]; at Ba/F3-EGFR-WT cells) were 67.9 nM and 943 nM, respectively.

With `COc1c(Cl)cccc1Nc1c(-c2ccncc2OCC2(C)CCO2)[nH]c2c1C(=O)NCC2CCO` (single isomer, unassigned) [Example 22, 3-(3-chloro-2-methoxyanilino)-7-(2-hydroxyethyl)-2-{3-[(2-methyloxetan-2-yl)methoxy]pyridin-4-yl}-1,5,6,7-tetrahydro-4H-pyrrolo[3,2-c]pyridin-4-one], in experiment [1], the “mutEGFR” value came out at 0.66 nM. Also, the IC50 at Bub1 was 11600 nM. Besides, the GI50 came to 616 nM in experiment [2] and 2630 nM at Ba/F3-EGFR-WT cells.

As to `COc1c(Cl)cccc1Nc1c(-c2ccncc2OCC2(C)CCO2)[nH]c2c1C(=O)NCC2CCO` (single isomer, unassigned) [Example 23, 3-(3-chloro-2-methoxyanilino)-7-(2-hydroxyethyl)-2-{3-[(2-methyloxetan-2-yl)methoxy]pyridin-4-yl}-1,5,6,7-tetrahydro-4H-pyrrolo[3,2-c]pyridin-4-one], in experiment [1], the “mutEGFR” value is 0.796 nM. Further, the IC50 on Bub1 was over 20000 nM. For the same compound, the figures for the GI50 (in experiment [2]; on Ba/F3-EGFR-WT cells) were 920 nM and 7380 nM, respectively.

For `COc1c(Cl)cccc1Nc1c(-c2ccncc2OCC2COCCO2)[nH]c2c1C(=O)N[C@H](C)C2` (single isomer, unassigned) [Example 25], in experiment [1], the “mutEGFR” value came to 0.141 nM. On Bub1, this compound gave an IC50 of 5410 nM. The GI50 in experiment [2] turned out to be 25.9 nM; at Ba/F3-EGFR-WT cells, 358 nM.
